# Experimental data published in ChEMBL document CHEMBL3885881, “DrugMatrix”.
# Organism: Rattus norvegicus
# Assay: DrugMatrix - Regimen: Daily Repeat
# Format: toxicity, organism-based, Sprague-Dawley
# Set-up: regimen Daily Repeat, gender Male, age 6-8 weeks
# Conditions: in vivo, po, route oral GAVAGE, vehicle .5 % CMC; for ABSOLUTE BASOPHIL / ABSOLUTE EOSINOPHIL / ABSOLUTE LYMPHOCYTE / ABSOLUTE MONOCYTE / ABSOLUTE SEGMENTED NEUTROPHIL / BASOPHIL / EOSINOPHIL / ERYTHROCYTE COUNT / HEMATOCRIT / HEMOGLOBIN / LEUKOCYTE COUNT / LYMPHOCYTE / MEAN CORPUSCULAR HEMOGLOBIN / MEAN CORPUSCULAR HEMOGLOBIN CONCENTRATION / MONOCYTE / NEUTROPHIL / NUCLEATED RED BLOOD CELLS / PLATELET COUNT: tissue Blood; for ALANINE AMINOTRANSFERASE / ALBUMIN / ALKALINE PHOSPHATASE / ASPARTATE AMINOTRANSFERASE / BLOOD UREA NITROGEN / CARBON DIOXIDE / CHLORIDE / CHOLESTEROL / CREATINE PHOSPHOKINASE / CREATININE / GLUCOSE / LACTATE DEHYDROGENASE / LIPASE / PHOSPHORUS / POTASSIUM / SODIUM / TOTAL BILIRUBIN / TOTAL PROTEIN / URIC ACID: tissue Plasma
# [1] = 3 mg/kg, 120 h, dose level Low, time 5 day
# [2] = 2000 mg/kg, 72 h, dose level High, time 3 day
# [3] = 2000 mg/kg, 120 h, dose level High, time 5 day
smiles,measurement,setting,value
COc1cc2nc(N3CCN(C(=O)c4ccco4)CC3)nc(N)c2cc1OC [PRAZOSIN],ABSOLUTE BASOPHIL,[1],0 CELLS/uL
same,ABSOLUTE EOSINOPHIL,[1],228.67 CELLS/uL
same,ABSOLUTE LYMPHOCYTE,[1],11545.33 CELLS/uL
same,ABSOLUTE MONOCYTE,[1],136 CELLS/uL
same,ABSOLUTE SEGMENTED NEUTROPHIL,[1],1690 CELLS/uL
same,BASOPHIL,[1],0%
same,EOSINOPHIL,[1],1.67%
same,ERYTHROCYTE COUNT,[1],5.54 x10E6/uL
same,HEMATOCRIT,[1],34.63%
same,HEMOGLOBIN,[1],13.5 G/DL
same,LEUKOCYTE COUNT,[1],13.6 x10E3/uL
same,LYMPHOCYTE,[1],85.33%
same,MEAN CORPUSCULAR HEMOGLOBIN,[1],24.47 pg
same,MEAN CORPUSCULAR HEMOGLOBIN CONCENTRATION,[1],39.03 G/DL
same,MONOCYTE,[1],1%
same,NEUTROPHIL,[1],12%
same,NUCLEATED RED BLOOD CELLS,[1],0 /100WBC
same,PLATELET COUNT,[1],1245 x10E3/uL
same,ALANINE AMINOTRANSFERASE,[1],57.33 u/L
same,ALBUMIN,[1],4.23 G/DL
same,ALKALINE PHOSPHATASE,[1],336.33 u/L
same,ASPARTATE AMINOTRANSFERASE,[1],106.67 u/L
same,BLOOD UREA NITROGEN,[1],16.67 mg/dL
same,CARBON DIOXIDE,[1],21.67 mmol/L
same,CHLORIDE,[1],104.33 MEQ/L
same,CHOLESTEROL,[1],73 mg/dL
same,CREATINE PHOSPHOKINASE,[1],877.67 u/L
same,CREATININE,[1],0.19 mg/dL
same,GLUCOSE,[1],131.67 mg/dL
same,LACTATE DEHYDROGENASE,[1],643.67 u/L
same,LIPASE,[1],9.67 u/L
same,PHOSPHORUS,[1],11.7 mg/dL
same,POTASSIUM,[1],6.1 MEQ/L
same,SODIUM,[1],144.23 MEQ/L
same,TOTAL BILIRUBIN,[1],0.23 mg/dL
same,TOTAL PROTEIN,[1],6.13 G/DL
same,URIC ACID,[1],1.5 mg/dL
same,ABSOLUTE BASOPHIL,[2],0 CELLS/uL
same,ABSOLUTE EOSINOPHIL,[2],93.33 CELLS/uL
same,ABSOLUTE LYMPHOCYTE,[2],7483.33 CELLS/uL
same,ABSOLUTE MONOCYTE,[2],100 CELLS/uL
same,ABSOLUTE SEGMENTED NEUTROPHIL,[2],856.67 CELLS/uL
same,BASOPHIL,[2],0%
same,EOSINOPHIL,[2],1%
same,ERYTHROCYTE COUNT,[2],5.18 x10E6/uL
same,HEMATOCRIT,[2],33.2%
same,HEMOGLOBIN,[2],13 G/DL
same,LEUKOCYTE COUNT,[2],8.53 x10E3/uL
same,LYMPHOCYTE,[2],87.33%
same,MEAN CORPUSCULAR HEMOGLOBIN,[2],25.1 pg
same,MEAN CORPUSCULAR HEMOGLOBIN CONCENTRATION,[2],39.17 G/DL
same,MONOCYTE,[2],1.33%
same,NEUTROPHIL,[2],10.33%
same,NUCLEATED RED BLOOD CELLS,[2],0 /100WBC
same,PLATELET COUNT,[2],1248.33 x10E3/uL
same,ALANINE AMINOTRANSFERASE,[2],55.33 u/L
same,ALBUMIN,[2],3.8 G/DL
same,ALKALINE PHOSPHATASE,[2],290.33 u/L
same,ASPARTATE AMINOTRANSFERASE,[2],131.67 u/L
same,BLOOD UREA NITROGEN,[2],18.33 mg/dL
same,CARBON DIOXIDE,[2],24 mmol/L
same,CHLORIDE,[2],105 MEQ/L
same,CHOLESTEROL,[2],68.33 mg/dL
same,CREATINE PHOSPHOKINASE,[2],1224.33 u/L
same,CREATININE,[2],0.19 mg/dL
same,GLUCOSE,[2],153 mg/dL
same,LACTATE DEHYDROGENASE,[2],177.67 u/L
same,LIPASE,[2],9.67 u/L
same,PHOSPHORUS,[2],10.87 mg/dL
same,POTASSIUM,[2],5.14 MEQ/L
same,SODIUM,[2],144.9 MEQ/L
same,TOTAL BILIRUBIN,[2],0.17 mg/dL
same,TOTAL PROTEIN,[2],5.37 G/DL
same,URIC ACID,[2],1.17 mg/dL
same,ABSOLUTE BASOPHIL,[3],0 CELLS/uL
same,ABSOLUTE EOSINOPHIL,[3],0 CELLS/uL
same,ABSOLUTE LYMPHOCYTE,[3],9169.67 CELLS/uL
same,ABSOLUTE MONOCYTE,[3],0 CELLS/uL
same,ABSOLUTE SEGMENTED NEUTROPHIL,[3],630.33 CELLS/uL
same,BASOPHIL,[3],0%
same,EOSINOPHIL,[3],0%
same,ERYTHROCYTE COUNT,[3],5.58 x10E6/uL
same,HEMATOCRIT,[3],34%
same,HEMOGLOBIN,[3],13.3 G/DL
same,LEUKOCYTE COUNT,[3],9.8 x10E3/uL
same,LYMPHOCYTE,[3],93.33%
same,MEAN CORPUSCULAR HEMOGLOBIN,[3],23.83 pg
same,MEAN CORPUSCULAR HEMOGLOBIN CONCENTRATION,[3],39.13 G/DL
same,MONOCYTE,[3],0%
same,NEUTROPHIL,[3],6.67%
same,NUCLEATED RED BLOOD CELLS,[3],0 /100WBC
same,PLATELET COUNT,[3],1205.67 x10E3/uL
same,ALANINE AMINOTRANSFERASE,[3],63.33 u/L
same,ALBUMIN,[3],3.8 G/DL
same,ALKALINE PHOSPHATASE,[3],286.33 u/L
same,ASPARTATE AMINOTRANSFERASE,[3],139.33 u/L
same,BLOOD UREA NITROGEN,[3],16 mg/dL
same,CARBON DIOXIDE,[3],21.33 mmol/L
same,CHLORIDE,[3],104.67 MEQ/L
same,CHOLESTEROL,[3],64.67 mg/dL
same,CREATINE PHOSPHOKINASE,[3],1202.67 u/L
same,CREATININE,[3],0.19 mg/dL
same,GLUCOSE,[3],152 mg/dL
same,LACTATE DEHYDROGENASE,[3],204 u/L
same,LIPASE,[3],9 u/L
same,PHOSPHORUS,[3],10.4 mg/dL
same,POTASSIUM,[3],5.65 MEQ/L
same,SODIUM,[3],146.07 MEQ/L
same,TOTAL BILIRUBIN,[3],0.2 mg/dL
same,TOTAL PROTEIN,[3],5.3 G/DL
same,URIC ACID,[3],0.73 mg/dL
